Reference: ChEMBL document CHEMBL3785071, “Development of potential broad spectrum antimicrobials using C2-symmetric 9-fluorenone alkyl amine” (Bioorg Med Chem Lett, 2016)
≈ marks a conversion by molar mass, not a printed value. Calls of active or inactive are those of the source. No cut-off for these calls is given here.

Key:
Burkholderia cepacia [1] = assay: Antibacterial activity against Burkholderia cepacia ATCC 25608 after 20 hrs; assay type: functional
Staphylococcus aureus [2] = assay: Antibacterial activity against methicillin-resistant Staphylococcus aureus Lac JE2 USA300 at 100 ug/ml after 20 hrs; assay type: functional, organism-based
[3] = test system: Francisella tularensis subsp. holarctica; assay: Antibacterial activity against Francisella tularensis subsp. holarctica ATCC 29684 at 100 ug/ml after 20 hrs; assay type: functional
Pseudomonas aeruginosa [4] = assay: Antibacterial activity against Pseudomonas aeruginosa ATCC 27853 after 20 hrs; assay type: functional; conditions: ATCC 27853, 20 h
Escherichia coli [5] = assay: Antibacterial activity against Escherichia coli ATCC 35218 after 20 hrs; assay type: functional; conditions: ATCC 35218, 20 h
Klebsiella pneumoniae [6] = assay: Antibacterial activity against Klebsiella pneumoniae ATCC BAA-1706 at 100 ug/ml after 20 hrs; assay type: functional, organism-based
Staphylococcus aureus [7] = assay: Antibacterial activity against Staphylococcus aureus ATCC 25923 after 20 hrs; assay type: functional
Yersinia pestis [8] = assay: Antibacterial activity against Yersinia pestis A1122 after 20 hrs; assay type: functional; conditions: A1122, 20 h
Bacillus anthracis = assay: Antibacterial activity against Bacillus anthracis Sterne after 20 hrs; assay type: functional
[9] = test system: Burkholderia thailandensis; assay: Antibacterial activity against Burkholderia thailandensis ATCC 700388 after 20 hrs; assay type: functional
Burkholderia cepacia [10] = assay: Antibacterial activity against Burkholderia cepacia ATCC 25608 at 100 ug/ml after 20 hrs; assay type: functional, organism-based
Pseudomonas aeruginosa [11] = assay: Antibacterial activity against Pseudomonas aeruginosa ATCC 27853 at 100 ug/ml after 20 hrs; assay type: functional, organism-based
Yersinia pestis [12] = assay: Antibacterial activity against Yersinia pestis A1122 at 100 ug/ml after 20 hrs; assay type: functional
Staphylococcus aureus [13] = assay: Antibacterial activity against methicillin-resistant Staphylococcus aureus Lac JE2 USA300 after 20 hrs; assay type: functional; conditions: LAC JE2 USA300, 20 h
[14] = Antibacterial activity against Francisella tularensis subsp. holarctica ATCC 29684 after 20 hrs; assay type: functional; conditions: ATCC 29684, 20 h
[15] = test system: Burkholderia thailandensis; assay: Antibacterial activity against Burkholderia thailandensis ATCC 700388 at 100 ug/ml after 20 hrs; assay type: functional
Staphylococcus aureus [16] = assay: Antibacterial activity against Staphylococcus aureus ATCC 25923 at 100 ug/ml after 20 hrs; assay type: functional, organism-based
Escherichia coli [17] = assay: Antibacterial activity against Escherichia coli ATCC 35218 at 100 ug/ml after 20 hrs; assay type: functional, organism-based
Staphylococcus aureus [18] = assay: Inhibition of Staphylococcus aureus DnaG primase activity after 1 hr by HPLC analysis
[19] = Inhibition of Bacillus anthracis Sterne 34F2 DnaG primase activity using a DNA 32-mer template; design: species or system Bacillus anthracis str. Sterne
Klebsiella pneumoniae [20] = assay: Antibacterial activity against Klebsiella pneumoniae ATCC BAA-1706 after 20 hrs; assay type: functional; conditions: ATCC BAA-1706, 20 h

SMILES	MIC (Burkholderia cepacia [1]; ATCC 25608, 20 h) [µg/mL]	Activity (Staphylococcus aureus [2])	Activity [3]	Activity (Klebsiella pneumoniae [6])	MIC (Bacillus anthracis) [µg/mL]	Activity (Pseudomonas aeruginosa [11])	Activity (Yersinia pestis [12])	MIC (Staphylococcus aureus [13]) [µg/mL]	MIC [14] [µg/mL]	Activity [15]	Activity (Staphylococcus aureus [16])	Activity (Escherichia coli [17])	further results
C=CCN(C)CCCOc1ccc2c(c1)C(=O)c1cc(OCCCN(C)CC=C)ccc1-2	100 (≈ 230 µM)	inactive	inactive	inactive	100 (≈ 230 µM)	–	–	–	–	–	–	–	MIC (Pseudomonas aeruginosa [4]): 100 µg/mL (≈ 230 µM); MIC (Escherichia coli [5]): 100 µg/mL (≈ 230 µM); MIC (Staphylococcus aureus [7]): inactive; MIC (Yersinia pestis [8]): 100 µg/mL (≈ 230 µM); MIC [9]: inactive
C=CCOc1ccc2c(c1)C(=O)c1cc(OCCCN(C)CC=C)ccc1-2	–	–	–	inactive	25 (≈ 68.8 µM)	inactive	inactive	32 (≈ 88 µM)	50 (≈ 138 µM)	inactive	inactive	inactive	Activity (Burkholderia cepacia [10]): inactive
C=CCN(C)CCCCCCCCOc1ccc2c(c1)C(=O)c1cc(OCCCCCCCCN(C)CC=C)ccc1-2	100 (≈ 174 µM)	–	–	inactive	17.5 (≈ 30.4 µM)	inactive	inactive	16 (≈ 27.8 µM)	37.5 (≈ 65.2 µM)	–	–	inactive	MIC (Staphylococcus aureus [7]; ATCC 25923, 20 h): 50 µg/mL (≈ 87 µM); MIC ([9]; ATCC 700388, 20 h): 17.5 µg/mL (≈ 30.4 µM)
O=C1c2cc(OCCN3CCCCC3)ccc2-c2ccc(OCCN3CCCCC3)cc21	100 (≈ 230 µM)	inactive	inactive	inactive	100 (≈ 230 µM)	inactive	inactive	–	–	inactive	inactive	inactive	–
CCN(CC)CCOc1ccc2c(c1)C(=O)c1cc(OCCN(CC)CC)ccc1-2 [TILORONE]	–	–	–	–	–	–	–	–	–	–	–	–	inhibition (Staphylococcus aureus [18]): Active; Activity (Staphylococcus aureus [7]): inactive; IC50 [19]: 7.1 µM
C=CCN(C)CCOc1ccc2c(c1)C(=O)c1cc(OCCN(C)CC=C)ccc1-2	–	inactive	inactive	inactive	100 (≈ 246 µM)	inactive	inactive	–	–	inactive	inactive	inactive	Activity (Burkholderia cepacia [10]): inactive
O=C1c2cc(OCCCCCCCCN3CCCCC3)ccc2-c2ccc(OCCCCCCCCN3CCCCC3)cc21	87.5 (≈ 145 µM)	–	–	–	17.5 (≈ 29 µM)	inactive	inactive	16 (≈ 26.5 µM)	37.5 (≈ 62.2 µM)	–	–	inactive	MIC (Staphylococcus aureus [7]; ATCC 25923, 20 h): 62.5 µg/mL (≈ 104 µM); MIC (Klebsiella pneumoniae [20]): 100 µg/mL (≈ 166 µM); MIC ([9]; ATCC 700388, 20 h): 25 µg/mL (≈ 41.5 µM)
O=C1c2cc(OCCCN3CCCCC3)ccc2-c2ccc(OCCCN3CCCCC3)cc21	–	inactive	inactive	inactive	75 (≈ 162 µM)	–	inactive	–	–	inactive	inactive	inactive	MIC (Burkholderia cepacia [1]): inactive; MIC (Pseudomonas aeruginosa [4]): 100 µg/mL (≈ 216 µM)
